Data set [1] has as its system K562 cells. Nature of the data set: Aerobic glycolysis: total glucose consumption and lactate production of K562 cultures over four days (Nova Bioprofile Flex Analyzer). The class given is cell-based. To be noted: for glucose consumption: FIG. 5A; for lactate production: FIG. 5B. How it is done: (§1) Daily cell culture supernatants were collected, and analyzed using the Nova Biomedical Bioprofile Flex Analyzer, which determined glucose, glutamine, lactate, and ammonia levels. For the HIF-1 induction experiments, K562 cells were incubated at 4 million cells/ml in a plastic tube (Falcon 35-2059) with rubber stopper (Kontes Glass Company #882310), with constant stirring at 37 C. At indicated time points, tubes were spun to pellet cells, and the glucose, lactate and pO2 content of supernatant was assessed by syringe sampling through an air-tight rubber stopper. After supernatant sampling, cells were collected and lysates were prepared as described above.
To investigate the metabolic effects of phenformin on K562 cells, we compared the glycolytic activity of the cells in the drug-treated cultures by quantifying total glucose consumption and lactate production over four days (FIGS. 5A and 5B, respectively), by collecting and analyzing daily cell culture supernatants using a Nova Biomedical Bioprofile Flex Analyzer. […] Phenformin was therefore novel in its ability to dissociate aerobic glycolysis from cell proliferation.

In data set [2] the test system is K562 cells. Nature of the data set: K562 proliferation, cell number by Coulter Counter over four days after a single dose of inhibitor. To be noted: FIG. 1A; for effect on K562 proliferation (cell number): 25 nM rapamycin, four days.
Another data set has as its system Akt. Nature of the data set: Western blot of phospho-Akt in K562 cells 24 hours after inhibitor treatment. To be noted: relative to untreated, FIG. 2. The class given is cell-based. From the text:
(§2) Western Blot Analysis. Cells were lysed in radioimmunoprecipitation (RIPA) buffer containing protease inhibitors (Complete Mini, Roche Applied Science), and protease inihibitors cocktails I and II (Sigma). BCA Protein Assay kit (Pierce Biotechnology) was used to assess and standardize protein concentrations. Proteins were resolved using a 4-12% NuPage Bis-Tris polyacrylamide gels (Invitrogen), and transferred to nitrocellulose membranes. Membranes were blocked using 5% nonfat dry skim milk and 0.1% Tween. […] Bands were subsequently detected using horseradish-peroxidase conjugated anti-mouse or anti-rabbit secondary antibodies (GE Healthcare Industries) and enhanced chemiluminescence detection kit (Amersham).
(§3) To characterize the pattern of signaling pathway activation in inhibitor-treated cells, the activity of the Akt and Jak-STAT pathways were examined, two pathways known to be activated by the bcr-abl oncogenic signaling. Proteins were isolated from cells, 24 hours after inhibitor treatment, and assessed for levels of phospho-Akt ([…]) and phospho-STAT5 (tyr694/699), as well as total levels of these proteins as loading controls.
On the technique in general: Immunoblotting shows a protein as a band on a membrane.

In the next data set the test system is STAT5. In words: Western blot of phospho-STAT5 (tyr694/699) in K562 cells 24 hours after inhibitor treatment. The class given is cell-based. To be noted: relative to untreated, FIG. 2.
Excerpt: as §2, §3

For data set [3], the system named is K562 cells. In words: Glutamine uptake of K562 cultures over four days. It counts as cell-based. As to conditions: FIG. 8. On the procedure: as §1
To further investigate what functional role the TCA cycle might play in K562 proliferation, we compared the ability of phenformin-treated cells to metabolize glutamine. In tumor cells, glutaminolysis is important in maintaining TCA cycle activity, as it serves to provide an additional source of TCA cycle intermediates (a-ketoglutarate) to the mitochondria.

Data set [4] concerns K562 cells. In words: K562 cell viability by propidium iodide exclusion over four days. It counts as cell-based. As to conditions: single dose, 1 mM phenformin, 750 nM imatinib, 25 nM rapamycin, FIG. 1B. On the procedure: (§4) K562 cell line was obtained from ATCC.
K562 cells were treated with a single dose of imatinib, rapamycin, or phenformin, and assessed for cell number (Coulter Counter) and cell viability (by propidium iodide exclusion) over four days.

Data set [5] concerns K562 cells. In words: K562 viability under medium depletion of glucose or glutamine (propidium iodide exclusion, FACS). The class given is cell-based. To be noted: K562, 4 days; FIG. 7. On the procedure: as §4
The viability of K562 cells after variable inhibitor treatment, and selective medium depletion of glucose or glutamine, is shown. Cell viability was determined by propidium iodide exclusion of 10,000 cells (via FACS analysis), taken from each culture each day of experiment.

The conditions of data set [6]: treatment of diabetes; background statement; cited from earlier work.
Data set [7] deals with K562 cells. Nature of the data set: Comparison of phenformin and metformin: total K562 cell number after three days over a range of biguanide concentrations. It counts as cell-based. To be noted: three days after a single dose, FIG. 3; for inhibition of K562 proliferation: started at 200,000 cells/ml. An excerpt: Direct comparison of metformin and phenformin activity, over a range of biguanide concentrations, was accomplished by comparing total K562 cell number after three days of exposure to a single dose of phenformin or metformin, as indicated (FIG. 3). Cell cultures were started at a density of 200,000 cells/ml.

Data set [8] has as its system K562 cells. In words: Oxygen consumption rate (electron transport activity), Clarke oxygen electrode. It counts as cell-based. To be noted: 24 hours inhibitor treatment, relative to untreated, FIG. 6A. How it is done: (§5) Oxygen consumption by whole cells was measured as previously described. See Schumacker P T, Chandei N, Agusti A G. Oxygen conformance of cellular respiration in hepatocytes. Am J. Physiol. 1993; 265:L395-402. Briefly, inhibitor-treated (24 hours) K562 cells were resuspended at a concentration of 4 million cells/ml, and 1.4 mL of culture was transferred to a water-jacketed, airtight 3 ml chamber with a Clarke oxygen electrode, (Hansatech Instruments). Electron transport activity was manipulated through mitochondrial uncoupling with 10 uL of 1 mM Carbonyl cyanide 3-chlorophenylhydrazone (CCCP) (Sigma), and media supplementation of sodium Succinate (25 uL of 1M stock), after membrane permeabilization with […] (4 ul of 25 mg/ml stock). Relative ATP levels were assessed using the Invitrogen ATP determination kit (A22066), as per protocol, using 25,000 cell pellets. Cells were assayed after 24 hours of inhibitor treatment, as indicated, and results were expressed as Arbitrary Units/25000 cells.
Electron Transport Activity (ETC) activity, as determined by oxygen consumption rates, was assessed after treatment with each inhibitor, using a water-jacketed, airtight 3 ml chamber with a Clarke oxygen electrode, (Hansatech Instruments).

Another data set relates to HIF-1. In words: HIF-1 induction in K562 cells in airtight tubes (Western blot). To be noted: 37° C., FIG. 10D. It counts as cell-based.
Excerpt: as §2
Daily cell culture supernatants were collected, and analyzed using the Nova Biomedical Bioprofile Flex Analyzer, which determined glucose, glutamine, lactate, and ammonia levels. […] At indicated time points, tubes were spun to pellet cells, and the glucose, lactate and pO2 content of supernatant was assessed by syringe sampling through an air-tight rubber stopper. […]
Phenformin-treated and untreated K562 cells were transferred to airtight tubes and incubated at 37° C. for 1 to 6 hours. At one hour intervals, supernatants were analyzed for partial oxygen pressure (pO2), glucose, and lactate levels, while cells were collected for protein extract preparation. […]

The next data set deals with c-myc. Nature of the data set: Western blot of BCR-Abl-induced c-myc expression in K562 cells after 24 hours of inhibitor treatment. It counts as cell-based. As to conditions: K562, 24 hours of inhibitor treatment; FIG. 9.
Data set [9] relates to Bax-Bak deficient lymphocytes. In words: Proliferation of Bax-Bak deficient lymphocytes with IL-3 stimulation, total cell number after three days. To be noted: three days after a single dose, started at 200,000 cells/ml, FIG. 4. It counts as cell-based. How it is done:
The ability of phenformin to inhibit the proliferation of Bax-Bak deficient lymphocytes, in the presence of IL-3 stimulation, was assessed, and compared to the activity of metformin. Direct comparison of metformin and phenformin activity, over a range of biguanide concentrations, was accomplished by comparing total cell numbers of bax-bak deficient cells after three days exposure to a single dose of phenformin or metformin, as indicated (FIG. 4). Cell cultures were started at a density of 200,000 cells/ml.

Data set [10] concerns K562 cells. In words: Intracellular ATP levels (Invitrogen ATP determination kit). The class given is cell-based. To be noted: K562, 24 hours of inhibitor treatment; 25,000 cell pellets; FIG. 6B. How it is done: as §5
Cells were assayed after 24 hours of inhibitor treatment, as indicated, and results were expressed as Arbitrary Units/25000 cells. Oxygen consumption correlated closely with relative levels of intracellular ATP.

The subject of data set [11] is K562 cells. Nature of the data set: pO2, glucose and lactate in supernatants of K562 cells incubated in airtight tubes at 37° C. The class given is cell-based. As to conditions: 1 to 6 hours, versus untreated, FIG. 10A. How it is done:
as §1
Phenformin-treated and untreated K562 cells were transferred to airtight tubes and incubated at 37° C. for 1 to 6 hours. At one hour intervals, supernatants were analyzed for partial oxygen pressure (pO2), glucose, and lactate levels, while cells were collected for protein extract preparation. […] FIG. 10D. Tubulin serves as loading control.

Where [12] appears, read: 1 mM phenformin, 750 nM imatinib.

“Also recorded” adds a separate entry of the source.

Excerpt for c-myc: Western Blot Analysis. Cells were lysed in radioimmunoprecipitation (RIPA) buffer containing protease inhibitors (Complete Mini, Roche Applied Science), and protease inihibitors cocktails I and II (Sigma). BCA Protein Assay kit (Pierce Biotechnology) was used to assess and standardize protein concentrations. Proteins were resolved using a 4-12% NuPage Bis-Tris polyacrylamide gels (Invitrogen), and transferred to nitrocellulose membranes. Membranes were blocked using 5% nonfat dry skim milk and 0.1% Tween. Blots were subsequently probed with primary antibodies against: REDD-1 (Proteintech Group Inc), phospho-ser235/236 S6RP, total S6RP, phospho-thr172 AMPK, total-AMPK, phospho-tyr694/699 STAT5 (Upstate Biotechnology), total STAT5 (Upstate Biotechnology), phospho-thr202/tyr204 p42/44MAPK, total p42/44 MAPK, c-myc (Santa Cruz Biotechnologies), HIF-1a (Biosciences Pharmingen), and tubulin (Sigma). Unless otherwise indicated, all antibodies were obtained from Cell Signaling Technologies. Bands were subsequently detected using horseradish-peroxidase conjugated anti-mouse or anti-rabbit secondary antibodies (GE Healthcare Industries) and enhanced chemiluminescence detection kit (Amersham).
Expression levels of c-myc in inhibitor and untreated (U) control K562 cells was investigated by Western Blotting of cellular extracts prepared after 24 hours of inhibitor treatment.

With `Cc1ccc(NC(=O)c2ccc(CN3CCN(C)CC3)cc2)cc1Nc1nccc(-c2cccnc2)n1` [imatinib], in the data set on K562 cells [1], the glucose consumption result was “minimal glucose consumption”; the lactate production result is “minimal glucose consumption and lactate production”. In addition, in the data set on K562 cells [2] (750 nM imatinib), the “doubling of cell number achieved before proliferation ceased” value is “approximately one” and the “time after which proliferation ceased” value is 2 days. Further, the “effect on K562 proliferation (cell number)” value in the data set with K562 cells [2] (setting [12]) was “halted K562 proliferation”. In addition, the Akt phosphorylation result with Akt is listed as “left Akt phosphoylation intact”. Also, the STAT5 phosphorylation entry in the data set with STAT5 is “decreased the levels of STAT5 phosphorylation”. In addition, the glutamine uptake entry with K562 cells [3] was “failed to demonstrate substantial glutamine uptake”. In addition, the cell viability result in the data set with K562 cells [4] is listed as “induced a decrease in viability”. In addition, the “cell viability in glutamine-depleted medium” value with K562 cells [5] was “significantly increased cell death upon glutamine depletion”.
Take `CN(C)C(=N)NC(=N)N` [metformin]: the “risk / incidence of lactic acidosis” value in data set [6] is “significantly less than that observed with phenformin”. Further, the “inhibition of K562 proliferation” value in the data set on K562 cells [7] is “relatively weak inhibitor of K562 proliferation”.
With `[H]/N=C(/N)N/C(=N/[H])NCCc1ccccc1` [phenformin], the “risk / incidence of lactic acidosis” value in [6] is given as “increased risk of lactic acidosis”. In the data set on K562 cells [1], the glucose consumption entry was “consumed glucose at rates similar to untreated cells”; the lactate production result was “accumulated lactate and consumed glucose at rates similar to untreated cells”. In addition, the “effect on K562 proliferation (cell number)” value in the data set with K562 cells [2] (setting [12]) is on record as “halted K562 proliferation”. Moreover, the “time after which no increase in cell number was observed” value with K562 cells [2] (1 mM phenformin) came out at 24 h. For the same molecule, the Akt phosphorylation result with Akt was “no suppression of Akt phosphorylation”. The oxygen consumption entry in the data set with K562 cells [8] was “most dramatically reduced oxygen consumption”. The HIF-1 induction entry in the data set with HIF-1 was “prevented HIF-1 induction; also recorded: prevents hypoxia and HIF-1 induction”. Also, the glutamine uptake result in the data set on K562 cells [3] was “failed to demonstrate substantial glutamine uptake”. Besides, in the data set with c-myc, the c-myc expression result is given as “inhibited c-myc expression more effectively than rapamycin; also recorded: commensurate in efficacy with imatinib”. In the data set on K562 cells [7], the “potency in inhibiting K562 proliferation relative to metformin” value is reported as 100 fold and the “inhibition of K562 proliferation” value is on record as “more potent inhibitor of K562 proliferation”. In addition, the “inhibition of proliferation of bax-bak deficient cells” value in [9] is “prevents proliferation of bax-bak deficient cells; also recorded: consistently more potent an inhibitor than metformin”. Besides, the “intracellular ATP levels” value in the data set on K562 cells [10] is given as “most profoundly reduced”. Moreover, the “partial oxygen pressure (pO2) of the culture” value in the data set with K562 cells [11] is recorded as “dramatically different partial oxygen pressures; also recorded: absence of hypoxia; also recorded: maintained an oxygen-rich environment”. In addition, the cell viability result in the data set on K562 cells [4] is on record as “greater viability over the four days”. In the data set with K562 cells [5], the “cell viability in glucose-depleted medium” value is recorded as “significantly increased cell death upon glucose depletion” and the “cell viability in glutamine-depleted medium” value is given as “significantly increased cell death upon glutamine depletion”.

The values above are taken from US8574829B2, “Methods of treating cancer with phenformin” (The Trustees Of The University Of Pennsylvania, priority 2009, dated 2013).
